From US20060205599A1, “Herbicide combinations comprising specific sulfonamides” (Bayer CropScience GmbH, priority 2003, published 2006)

What was measured:
Veronica hederifolia = experiment: Herbicidal action (field trials), visual scoring of harmful plant; assay type: in vivo; details: field trial, natural outdoor conditions; visual score about 4 weeks after application vs untreated control (100% = all plants died), mean of 2-4 plots; application rate g of active substance/hectare: A 5, B 30, C 250, A + B 5 + 30, A + B + C 5 + 30 + 250
Method: The seeds or rhizome pieces of the harmful plants and the useful plants were laid out or were present in the soil, and they were grown under natural outdoor conditions. Treatment with the active compounds or active compound combinations was carried out […] before and/or after the emergence of the plants, generally at the 2- to 4-leaf stage, in various dosages using a water application rate of 100 to 400 l/ha (converted).
After the application (about 4 weeks after the application), the effectiveness of the active compounds or active compound combinations was scored visually by comparing the treated plots to untreated control plants. During scoring, damage and development of all above-ground parts of plants was assessed. Scoring was carried out using a percentage scale (100% effect=all plants had died; 50% effect=50% of the plants and the green parts of the plants have died; 0% effect=no effect observed=like control plant). In each case, the mean score of 2-4 plots was calculated.
The results are shown in the table below; the effect of the individual application of active compounds (A+B) and C being stated in brackets.

Triticum aestivum = assay type: in vivo; details: field trial, natural outdoor conditions; visual score about 4 weeks after application vs untreated control, mean of 2-4 plots; application rate g of active substance/hectare: A 5, B 30, C 250, A + B 5 + 30, A + B + C 5 + 30 + 250
Method: The seeds or rhizome pieces of the harmful plants and the useful plants were laid out or were present in the soil, and they were grown under natural outdoor conditions.
During scoring, damage and development of all above-ground parts of plants was assessed. […] In each case, the mean score of 2-4 plots was calculated.

SMILES	Veronica hederifolia % effect (Veronica hederifolia) [%]	Triticum aestivum % damage (Triticum aestivum) [%]
CCCOc1nn(C(=O)[N-]S(=O)(=O)c2ccccc2C(=O)OC)c(=O)n1C.[Na+] [propoxycarbazone-sodium]	30	3
Cc1cc(Cl)ccc1O[C@H](C)C(=O)O [mecoprop-P, (R)-2-(4-chloro-o-tolyloxy)propionic acid]	35	0
COC(=O)c1ccc(CNS(C)(=O)=O)cc1S(=O)(=O)NC(=O)Nc1nc(OC)cc(OC)n1 [mesosulfuron-methyl, methyl 2-[3-(4,6-dimethoxypyrimidin-2-yl)ureidosulfonyl]-4-methanesulfonaminomethyl-benzoate]	7	2
